From US6197760A (priority 2000, dated 2001)
Entries after “also recorded” stand apart in the source; their conditions may differ. Read-outs that look alike come from different tables or passages of the source.

Tests used:
P388 leukemia [1] = system: P388 leukemia; set-up: species or system murine; details: mouse, in vivo; for 45-Day Surv/Total / % ILS / Approx. Net Log10 Change In Tumor Burden at End of Rx / Median Day of Death: ip, 100 mg/kg
L1210/CPA leukemia = format: in vivo, male CDF1 mice
mammary tumor 16/C = system: mammary tumor 16/C; set-up: species or system murine; details: mouse, in vivo
[2] = system: MCF-7 mammary tumor xenograft; set-up: species or system human; details: in vivo; for Days delay (T-C): sc
[3] = system: MX-1 mammary tumor xenograft; format: in vivo, human
LOX-IMVI melanoma = test: Evaluation against i.p. implanted LOX-IMVI melanoma (Table 6); format: in vivo, human; details: for 55-Day Surv./Total / % ILS / Median Day of Death: IP, Q1DX1 (1); for increase in life span (ILS) / survivors: Table 6
Procedure: BM-IPM was evaluated vs. human LOX-IMVI melanoma and produced a 52% increase in life span (ILS) and 20% survivors, while IPM yielded an identical ILS with no survivors.
Evaluation of BM-IPM Against I.P. Implanted Human
Treatment: IP: Q1DX1 (1) Therapeutic Response

Lewis lung carcinoma = details: mouse, in vivo; for % ILS (increase in life span, excluding survivors) / Log kill total (Log10 cell kill) / Tumour-free survivors: ip
P388 leukemia [4] = details: cited from earlier work
M5076 sarcoma [5] = details: cited from earlier work
in vivo [6] = details: mouse, ip
in vivo [7] = details: mouse, ip; remark: listed apart in the source
[8] = clinical; cited from earlier work
HeLa cells = details: in vitro; cited from earlier work
M5076 sarcoma [9] = test: Response of s.c. implanted M5076 sarcoma (Table 4); format: in vivo, murine; details: for days T-C: Table 4, dose not given
Procedure: Response of S.C. Implanted M5076 Sarcoma to Treatment with
The compounds were injected i.p. daily on days 11-15.

[10] = system: experimental leukemias and solid tumors; set-up: species or system mice and rats; details: in vivo
[11] = patients treated with Ifos; cited from earlier work
[12] = system: mixedfunction oxidase activities (cytochrome P-450, aryl hydrocarbon hydroxylase, aminopyrinedemethylase); glutathione; details: cited from earlier work
[13] = metabolite of CPA; cited from earlier work
[14] = L1210/CPA, i.p. day 2 only at MTD (CPA 200, Ifos 431, IPM 100 mg/kg)
[15] = L1210/CPA, i.p. day 2 only at MTD (CPA 200, Ifos 431, IPM 100 mg/kg), tumor burden at start 6.0 × 10^7 cells
[16] = L1210/0, i.p. day 2 only at MTD (CPA 200, Ifos 431, IPM 100 mg/kg)
[17] = L1210/0, i.p. day 2 only at MTD (CPA 200, Ifos 431, IPM 100 mg/kg), tumor burden at start 8.5 × 10^8 cells
[18] = MTD Dosage (highest non-toxic dose, LD10 or less)
[19] = 18 mg/kg i.p. daily on days 11-15
[20] = 27 mg/kg i.p. daily on days 11-15
[21] = 40 mg/kg i.p. daily on days 11-15

## CS(=O)(=O)OCCNP(=O)(O)NCCF [FM-IPM]
P388 leukemia [1]
  45-Day Surv/Total: 0/5
  % ILS: +10
  Approx. Net Log10 Change In Tumor Burden at End of Rx: -1.4
  Median Day of Death: 13.0

## O=P1(N(CCCl)CCCl)NCCCO1 (stereo not shown) [CPA, cyclophosphamide]
L1210/CPA leukemia; [14]
  % ILS (dying mice only): +57%
  Net log10 reduction in tumor burden after therapy: 4 log10
L1210/CPA leukemia; [15]
  Day 60 survivors/total: 0/10
Mammary tumor 16/C
  tumor response / comparative activity vs. 16/C: none of which caused tumor regression
[2]
  Days delay (T-C): 6.7
[3]; experiment analogous to MCF-7
  activity vs. MX-1: high activity
LOX-IMVI melanoma; 40 mg/kg/dose
  55-Day Surv./Total: 0/5
  % ILS: +121%
  Median Day of Death: 42.0 days
LOX-IMVI melanoma
  increase in life span (ILS): 121%
  survivors: no survivors
L1210/0 leukemia; [16]
  % ILS (dying mice only): +107%
  Net log10 reduction in tumor burden after therapy: 7 log10
L1210/0 leukemia; [17]
  Day 60 survivors/total: 0/10
Lewis lung carcinoma
  comparative activity against Lewis lung carcinoma: equivalent activity at equal host toxicity
  cure rate: 50-70%
  % ILS (increase in life span, excluding survivors): 68
  Log kill total (Log10 cell kill): > 6.8
  Tumour-free survivors: 5/10
P388 leukemia [4]; historical
  comparative activity vs. P388 leukemia, historically: comparably active to CM-IPM
M5076 sarcoma [5]; historical
  comparative activity vs. M5076 sarcoma, historically: comparably active to CM-IPM
In vivo [6]
  MTD: 200 mg/kg
In vivo [7]
  MTD: 200 mg/kg
[8]
  toxicity in patients: hemorrhagic cystitis

## O=P1(NCCCl)OCCCN1CCCl (stereo not shown) [Ifos, ifosfamide]
L1210/CPA leukemia; mouse, in vivo
  % ILS (dying mice only): +85
  Day 60 survivors/total: 0/10
  Net log10 reduction in tumor burden after therapy: 5
L1210/CPA leukemia; mouse, in vivo, ip, 289 mg/kg
  % ILS (dying mice only): +57
  Day 60 survivors/total: 0/10
  Net log10 reduction in tumor burden after therapy: 4
Mammary tumor 16/C
  tumor response / comparative activity vs. 16/C: none of which caused tumor regression
[2]
  Days delay (T-C): > 39.7
[3]; in vivo
  activity vs. MX-1: high activity
L1210/0 leukemia; mouse, in vivo
  % ILS (dying mice only): +185
  Day 60 survivors/total: 0/10
  Net log10 reduction in tumor burden after therapy: 8
L1210/0 leukemia; mouse, in vivo, ip
  MTD Dosage (highest non-toxic dose, LD10 or less): 289 mg/kg
L1210/0 leukemia; mouse, in vivo, ip, 289 mg/kg
  % ILS (dying mice only): +114
  Day 60 survivors/total: 0/9
  Net log10 reduction in tumor burden after therapy: 8
Lewis lung carcinoma
  comparative activity against Lewis lung carcinoma: equivalent activity at equal host toxicity
  cure rate: 50-70%
  % ILS (increase in life span, excluding survivors): 55
  Log kill total (Log10 cell kill): > 4.5
  Tumour-free survivors: 7/10
P388 leukemia [4]; mouse, in vivo
  comparative activity vs. P388 leukemia, historically: comparably active to CM-IPM
M5076 sarcoma [5]; mouse, in vivo
  comparative activity vs. M5076 sarcoma, historically: comparably active to CM-IPM
In vivo [6]; [18]
  MTD: 431 mg/kg
In vivo [7]
  MTD: 300 mg/kg

## O=P(O)(NCCBr)NCCBr [BB-IPM]
[2]
  Days delay (T-C): 1.7
HeLa cells
  cytotoxicity to HeLa cells: cytotoxic to HeLa cells in vitro

## N[C@@H](Cc1ccc(N(CCCl)CCCl)cc1)C(=O)O [Melphalan]
[2]
  Days delay (T-C): 28.1

## O=P(O)(NCCCl)NCCBr [BC-IPM]
[2]
  Days delay (T-C): 5.8
HeLa cells
  cytotoxicity to HeLa cells: cytotoxic to HeLa cells in vitro

## CS(=O)(=O)OCCNP(=O)(O)NCCBr [BM-IPM]
P388 leukemia [1]
  log cell kill: 5.5 log
  45-Day Surv/Total: 0/5
  % ILS: +73
  Approx. Net Log10 Change In Tumor Burden at End of Rx: -5.5
  Median Day of Death: 19.0
M5076 sarcoma [9]; [19]
  Days delay (T-C): 0.8 days
  Days to 2 Doublings: 10.1 days
  Tumor-free Surv/Total: 0/6
M5076 sarcoma [9]; [20]
  Days delay (T-C): 7.2 days
  Days to 2 Doublings: 16.5 days
  Tumor-free Surv/Total: 0/6
M5076 sarcoma [9]; [21]
  Days to 2 Doublings: Toxic
  Tumor-free Surv/Total: 0/6
M5076 sarcoma [9]
  days T-C: 7.2 days
Mammary tumor 16/C
  tumor response / comparative activity vs. 16/C: superior to the clinical drugs CPA and Ifos and to MM-IPM
[2]
  Days delay (T-C): 4.7
[3]; experiment analogous to MCF-7
  activity vs. MX-1: good activity; also recorded: more active but less so than CPA and Ifos
LOX-IMVI melanoma
  comparative activity vs. LOX melanoma: comparably active to IPM but less active than CPA
  increase in life span (ILS): 52%
  survivors: 20%
LOX-IMVI melanoma; 15 mg/kg/dose
  55-Day Surv./Total: 0/5
  % ILS: +26%
  Median Day of Death: 24.0 days
LOX-IMVI melanoma; 30 mg/kg/dose
  55-Day Surv./Total: 1/5
  % ILS: +52%
  Median Day of Death: 29.0 days

## CS(=O)(=O)OCCCNP(=O)(O)NCCCl [CM3-IPM]
P388 leukemia [1]
  45-Day Surv/Total: 0/5
  % ILS: +9
  Approx. Net Log10 Change In Tumor Burden at End of Rx: -0.7
  Median Day of Death: 12.0

## O=P(O)(NCCCl)NCCCl [IPM, isophosphoramide mustard]
L1210/CPA leukemia; [14]
  % ILS (dying mice only): +114%
  Net log10 reduction in tumor burden after therapy: 7 log10
L1210/CPA leukemia; [15]
  Day 60 survivors/total: 1/10
P388 leukemia [1]
  log cell kill: 4.8 log
  45-Day Surv/Total: 1/5
  % ILS: +64
  Approx. Net Log10 Change In Tumor Burden at End of Rx: -4.8
  Median Day of Death: 18.0
M5076 sarcoma [9]; [19]
  Days delay (T-C): 1.0 days
  Days to 2 Doublings: 10.3 days
  Tumor-free Surv/Total: 0/6
M5076 sarcoma [9]; [20]
  Days delay (T-C): 3.3 days
  Days to 2 Doublings: 12.6 days
  Tumor-free Surv/Total: 0/6
M5076 sarcoma [9]; [21]
  Days delay (T-C): 6.1 days
  Days to 2 Doublings: 15.4 days
  Tumor-free Surv/Total: 0/6
M5076 sarcoma [9]
  days T-C: 6.1 days
Mammary tumor 16/C
  tumor response / comparative activity vs. 16/C: limited regression
[2]
  Days delay (T-C): 33.9
[3]; experiment analogous to MCF-7
  activity vs. MX-1: good activity; also recorded: more active but less so than CPA and Ifos
LOX-IMVI melanoma; 40 mg/kg/dose
  55-Day Surv./Total: 0/5
  % ILS: +52%
  Median Day of Death: 29.0 days
LOX-IMVI melanoma
  increase in life span (ILS): identical ILS
  survivors: no survivors
[10]
  comparative therapeutic efficacy against experimental leukemias and solid tumors: generally comparable to that of CPA and Ifos
L1210/0 leukemia; [16]
  % ILS (dying mice only): +128%
  Net log10 reduction in tumor burden after therapy: 8 log10
L1210/0 leukemia; [17]
  Day 60 survivors/total: 0/10
Lewis lung carcinoma
  comparative activity against Lewis lung carcinoma: equivalent activity at equal host toxicity
  cure rate: 50-70%
  % ILS (increase in life span, excluding survivors): 34
  Log kill total (Log10 cell kill): > 2.1
  Tumour-free survivors: 6/10
In vivo [6]; [18]
  MTD: 100 mg/kg
In vivo [7]
  MTD: 100 mg/kg
[11]
  metabolite of Ifos in patients: major metabolite

## CS(=O)(=O)OCCNP(=O)(O)NCCCl [CM-IPM]
P388 leukemia [1]
  log cell kill: 6.1 log
  45-Day Surv/Total: 0/5
  % ILS: +82
  Approx. Net Log10 Change In Tumor Burden at End of Rx: -6.1
  Median Day of Death: 20.0
M5076 sarcoma [9]; [19]
  Days delay (T-C): 2.3 days
  Days to 2 Doublings: 11.6 days
  Tumor-free Surv/Total: 0/6
M5076 sarcoma [9]; [20]
  Days delay (T-C): 12.2 days
  Days to 2 Doublings: 21.5 days
  Tumor-free Surv/Total: 0/6
M5076 sarcoma [9]; [21]
  Days delay (T-C): 23.2 days
  Days to 2 Doublings: 32.5 days
  Tumor-free Surv/Total: 0/6
M5076 sarcoma [9]
  days T-C: 23.2 days
Mammary tumor 16/C
  tumor response / comparative activity vs. 16/C: superior to the clinical drugs CPA and Ifos and to MM-IPM; also recorded: comparable to BM-IPM vs. 16/C mammary tumor, and superior to CPA and Ifos vs. 16/C tumor
[2]
  comparative activity vs. MCF-7: equal in activity to Ifos, slightly superior to IPM and melphalan (the positive control) and significantly superior to CPA and all of the other analogs; also recorded: superior to MM-IPM, BC-IPM and CPA, slightly more active than IPM, and equally active to Ifos
  Days delay (T-C): > 39.7
[3]; experiment analogous to MCF-7
  activity vs. MX-1: only modest activity; also recorded: modestly active relative to CPA and Ifos
[10]
  comparative activity vs. three experimental leukemias and solid tumors: superior to IPM and other IPM analogs, including MM-IPM, vs. all three tumors

## C=CC=O [acrolein]
[12]
  liver toxicity: glutathione depletion and destruction of mixedfunction oxidase activities
[13]
  teratogenicity: teratogenic
